Data published in patent US5110976A, “Insecticidal composition comprising more than one active ingredient” (priority 1985, dated 1992).
≈ marks a conversion by molar mass, not a printed value. Entries after “also recorded” stand apart in the source; their conditions may differ.

Experiments:
Tetranychus urticae = assay: Potter Tower spray on mite-infested leaves (Table 19); assay type: in vivo, mites (Tetranychus urticae); details: Tetranychus urticae, 24 h, mortality after 24 hours; read-out: approx. LD50
Protocol: Leaves already infested with mites (Tetranychus urticae) were sprayed under Potter Tower. Mortality after 24 hours on the treated leaves was compared with the control.

A. matricariae = assay: Direct contact test on pupae (Table 26); assay type: in vivo
Protocol: Mature pupae of A. matricariae on paprika leaves in Petri-dishes are exposed to a direct spray of the active ingredients. Two or three days before emergence paprika leaves with parasitized pupae are used. The leaves are laid on moistened filter paper in a plastic Petri-dish.
Application of treatment: See Example 57.
The pieces of leaf are transferred after treatment to clean Petri-dish bottoms. The trays are stored in a climatic chamber at 20° C. temperature, 70% relative humidity and a light-dark cycle of 16-8 h. Surviving pupae hatch after 2-3 days. The numbers of hatched and dead pupae are counted.

Acanthoscelides obtectus = assay: Comparative contact test (Table 15); assay type: in vivo, bean weevil (Acanthoscelides obtectus), imago; details: Acanthoscelides obtectus, 24 h
Protocol: (§1) The active ingredient is dissolved in a 1:2 mixture of oil and acetone; filter paper discs (Whatman No. 1, diameter 9 cm) are impregnated with the solutions of the corresponding stereoisomers and enantiomer-pairs, respectively. The acetone is allowed to evaporate, whereupon the insects are exposed to filter papers discs placed in Petri-dishes. Three parallels are used on each dose and 15 insects are placed into each Petri-dish. The percental mortality is determined after 24 hours. The corrected percent mortality is calculated by means of the Abbot Formula.
(§2) The comparative test of Ia, Ib and a 40:60 mixture of Ia:Ib is carried out on bean weevil (Acanthoscelides obtectus), flour-beetle, (Tribolium confusum), house fly (Musca domestica) and sheep maggot fly (Lucillia sericata). The test method described is Example 41.

tribolium confusum [1] = assay: Comparative contact test (Table 15); assay type: in vivo, flour-beetle (Tribolium confusum), imago; details: 24 h
Protocol: as §1, §2

Tribolium confusum [2] = assay: Contact test on Tribolium confusum (Table 12); assay type: in vivo
Protocol: as §1
It appears from Table 12 that the increased activity shown in Example 41 is due to the synergistic effect of the trans-isomers to Tribolium confusum.

Tribolium confusum [3] = assay: Contact test, mixtures of Ia and Ib of various ratio (Table 13); assay type: in vivo, flour beetle (Tribolium confusum); details: Tribolium confusum, 24 h
Protocol: as §1
In Table 13 the insecticidal effect of mixtures of enantiomer-pairs Ia and Ib of various ratio is shown on flour beetle (Tribolium confusum). The test method is that disclosed in Example 43.

Musca domestica [4] = assay: Filter paper disc contact test (Table 11); assay type: in vivo, house fly (Musca domestica); details: Musca domestica, 24 h
Protocol: In Table 1 the activity of various stereoisomers of cypermethrin on the house fly (Musca domestica) is shown.
as §1

Hyphantria cunea = assay: Topical test on fall webworm (Table 18); assay type: in vivo, fall wetworm (Hyphantria cunea), L7-L8 larvae; details: Hyphantria cunea, topical, 24 h
Protocol: The active ingredients are dissolved in 2-ethoxy-ethanol and the solutions are applied in the form of 0.2 μl droplets onto the back of fall wetworm (Hyphantria cunea) of L7 -L8 larvae stage. The treated worms are placed on strawberry leaves in Petri-dishes. The test is carried out by using […], 2 parallels and 10 insects for each dose. The killed worms are counted after 24 hours and the percental mortality rate is calculated.

Colorado potato beetle = assay: Topical test on Colorado potato beetle (Table 14); assay type: in vivo, Colorado potato beetle (Leptinotersa decemlineata), imago
Protocol: In Table 14 the activity on Colorado potato beetle is shown.
The test materials are dissolved in 2-ethoxyethanol (Cellosolve). One 0.3 μl drop of the solution is applied to the abdominal sterna of the imago. The treatment is carried out by using 2 parallels and 10 insects for each dose. […]

Lucillia sericata = assay: Comparative contact test (Table 15); assay type: in vivo, sheep maggot fly (Lucillia sericata), imago; design: key: % mortality after 24 h, Abbott-corrected; details: 1440 min
Protocol: as §1, §2

T. confusum = assay: Activity as function of time, toxic symptoms (Table 16); assay type: in vivo, flour beetle (T. confusum), imagos
Protocol: as §1
Activity of cypermethrin stereoisomer-pairs as function of time on flour beetle (T. Confusum).
Flour beetle (T. confusum) imagos are exposed in Petri-dishes according to the method described in Example 43. For each dose 3 parallels are used and 15 animals are applied for each parallel test. In each point of time the insects lying on their backs are counted and the percental results are expressed in Table 16.

Musca domestica [5] = assay: Comparative contact test (Table 15); assay type: in vivo, house fly (Musca domestica), imago; details: 24 h
Protocol: as §1, §2

## CC1(C)[C@H](C(=O)O[C@H](C#N)c2cccc(Oc3ccccc3)c2)[C@@H]1C=C(Cl)Cl (relative stereo) [Ia]
Tetranychus urticae
  LC50: ~0.056 µg/mL (≈ 0.135 µM)
A. matricariae; 1 ppm
  Mortality %: 0%
A. matricariae; 5 ppm
  Mortality %: 0%
A. matricariae; 10 ppm
  Mortality %: 12.5%
A. matricariae; 33 ppm
  Mortality %: 77.0%
Acanthoscelides obtectus; 0.02 mg/disc
  mortality at 20 µg/disc: 10%
Acanthoscelides obtectus; 0.07 mg/disc
  mortality at 70 µg/disc: 37%
Acanthoscelides obtectus; 0.22 mg/disc
  mortality at 220 µg/disc: 63%
Acanthoscelides obtectus; 0.67 mg/disc
  mortality at 670 µg/disc: 95%
Acanthoscelides obtectus; 2.0 mg/disc
  mortality at 2000 µg/disc: 100%
Acanthoscelides obtectus; 6.0 mg/disc
  mortality at 6000 µg/disc: 100%
Tribolium confusum [1]; 0.02 mg/disc
  mortality at 20 µg/disc: 0%
Tribolium confusum [1]; 0.07 mg/disc
  mortality at 70 µg/disc: 18%
Tribolium confusum [1]; 0.22 mg/disc
  mortality at 220 µg/disc: 51%
Tribolium confusum [1]; 0.67 mg/disc
  mortality at 670 µg/disc: 100%
Tribolium confusum [1]; 2.0 mg/disc
  mortality at 2000 µg/disc: 100%
Tribolium confusum [1]; 6.0 mg/disc
  mortality at 6000 µg/disc: 100%
Tribolium confusum [2]; Tribolium confusum, 24 h, 0.33 mg/disc
  mortality at 330 µg/disc: 65%
Tribolium confusum [2]; Tribolium confusum, 24 h, 1.00 mg/disc
  mortality at 1000 µg/disc: 94%
Tribolium confusum [2]; Tribolium confusum, 24 h, 3.00 mg/disc
  mortality at 3000 µg/disc: 100%
Tribolium confusum [2]; in vivo
  synergism between the members of the enantiomer-pair: does not take place; also recorded: no similar synergism takes place
Tribolium confusum [3]; 0.06 mg/disc
  mortality at 60 µg/disc: 14%
Tribolium confusum [3]; 0.25 mg/disc
  mortality at 250 µg/disc: 54%
Tribolium confusum [3]; 0.02 mg/disc
  mortality at 20 µg/disc: 0%
Tribolium confusum [3]; 1.00 mg/disc
  mortality at 1000 µg/disc: 100%
Musca domestica [4]; 0.04 mg/disc
  mortality at 40 µg/disc: 44%
Musca domestica [4]; 0.11 mg/disc
  mortality at 110 µg/disc: 84%
Musca domestica [4]; 0.33 mg/disc
  mortality at 330 µg/disc: 100%
Musca domestica [4]; 1.00 mg/disc
  mortality at 1000 µg/disc: 100%
Musca domestica [4]; 3.00 mg/disc
  mortality at 3000 µg/disc: 100%
Hyphantria cunea; 0.023 (μg/disc)
  mortality at 0.023 µg/disc: 40%
Hyphantria cunea; 0.047 (μg/disc)
  mortality at 0.047 µg/disc: 60%
Hyphantria cunea; 0.094 (μg/disc)
  mortality at 0.094 µg/disc: 65%
Hyphantria cunea; 0.188 (μg/disc)
  mortality at 0.188 µg/disc: 80%
Hyphantria cunea; 0.375 (μg/disc)
  mortality at 0.375 µg/disc: 90%
Colorado potato beetle; Leptinotarsa decemlineata, topical, read-out: 24 hours' mortality %, 0.05 μg/beetle
  mortality at 0.05 µg/beetle: 50%
Colorado potato beetle; Leptinotarsa decemlineata, topical, read-out: 24 hours' mortality %, 0.10 μg/beetle
  mortality at 0.1 µg/beetle: 55%
Colorado potato beetle; Leptinotarsa decemlineata, topical, read-out: 24 hours' mortality %, 0.20 μg/beetle
  mortality at 0.2 µg/beetle: 75%
Colorado potato beetle; Leptinotarsa decemlineata, topical, read-out: 24 hours' mortality %, 0.40 μg/beetle
  mortality at 0.4 µg/beetle: 80%
Colorado potato beetle; imago of Colorado potato beetle
  comparative activity: more active than Ib
Lucillia sericata; 0.02 mg/disc
  mortality: 0
Lucillia sericata; 0.07 mg/disc
  mortality: 30
Lucillia sericata; 0.22 mg/disc
  mortality: 29
Lucillia sericata; 0.67 mg/disc
  mortality: 57
Lucillia sericata; 2.0 mg/disc
  mortality: 60
Lucillia sericata; 6.0 mg/disc
  mortality: 65
T. confusum; 30 minutes
  % of insects showing toxic symptoms: 0%
T. confusum; 30 minutes, 0.33 mg/disc
  % of insects showing toxic symptoms: 0%
T. confusum; 30 minutes, 1.00 mg/disc
  % of insects showing toxic symptoms: 0%
T. confusum; 30 minutes, 3.00 mg/disc
  % of insects showing toxic symptoms: 33%
T. confusum; 60 minutes
  % of insects showing toxic symptoms: 0%
T. confusum; 60 minutes, 0.33 mg/disc
  % of insects showing toxic symptoms: 0%
T. confusum; 60 minutes, 1.00 mg/disc
  % of insects showing toxic symptoms: 16%
T. confusum; 60 minutes, 3.00 mg/disc
  % of insects showing toxic symptoms: 88%
T. confusum; 120 minutes
  % of insects showing toxic symptoms: 0%
T. confusum; 120 minutes, 0.33 mg/disc
  % of insects showing toxic symptoms: 14%
T. confusum; 120 minutes, 1.00 mg/disc
  % of insects showing toxic symptoms: 66%
T. confusum; 120 minutes, 3.00 mg/disc
  % of insects showing toxic symptoms: 100%
T. confusum; 180 minutes
  % of insects showing toxic symptoms: 10%
T. confusum; 180 minutes, 0.33 mg/disc
  % of insects showing toxic symptoms: 49%
T. confusum; 180 minutes, 1.00 mg/disc
  % of insects showing toxic symptoms: 100%
T. confusum; 180 minutes, 3.00 mg/disc
  % of insects showing toxic symptoms: 100%
Musca domestica [5]; 0.02 mg/disc
  mortality at 20 µg/disc: 36%
Musca domestica [5]; 0.07 mg/disc
  mortality at 70 µg/disc: 63%
Musca domestica [5]; 0.22 mg/disc
  mortality at 220 µg/disc: 88%
Musca domestica [5]; 0.67 mg/disc
  mortality at 670 µg/disc: 100%
Musca domestica [5]; 2.0 mg/disc
  mortality at 2000 µg/disc: 100%
Musca domestica [5]; 6.0 mg/disc
  mortality at 6000 µg/disc: 100%
